We go through 50 molecules from US8765779B2, “Tricyclic derivatives and their pharmaceutical use and compositions” (Cephalon, Inc., priority 2009, dated 2014).

The target in this test is T1, human 5-HT6 receptor (Homo sapiens, UniProt P50406).
T1 construct: host or cells: CHO-K1 cells, stably transfected; membranes prepared in house
As to the kind of experiment: Human 5-HT6 Receptor Binding Assay ([3H]LSD displacement, scintillation beads). The settings on record: membranes of CHO-K1 cells with recombinant human 5-HT6, 4 nM [3H]LSD; Table 1, class symbols; read-out: h5-HT6 (Ki). How it is done:
Human 5-HT6 Receptor Binding Assay
Membranes were prepared from CHO—K1 cells stably transfected with the human 5-HT6 receptor (Euroscreen; ES-316-C). The cells were grown in Gibco Advanced DMEM-F12 (Cat#12634010) containing 2% dialyzed FBS (Hyclone Cat#SH30079.03). The cells were harvested in phosphate buffered saline (PBS) containing 0.1 mM EDTA and pelleted by centrifugation (1000×g), the supernatant was discarded and the pellets were stored at −80° C. prior to membrane preparation. Membranes were prepared as previously described (J Bio Chem. 1992, 267 (14) 9844-51). Briefly, frozen cell pellet was resuspended in a lysis buffer containing 5 mM Tris-HCl (pH 7.5), 5 mM EDTA and 1 complete EDTA-free protease inhibitor tablet (Roche Applied Science, Indianapolis, Ind.) per 50 mL buffer, and homogenized with a tissue homogenizer. The cell lysate was then centrifuged at 40,000×g for 30 min at 4° C. to collect the membranes. The membrane pellets were washed in membrane buffer (50 mM Tris-HCl (pH 7.5), 0.6 mM EDTA, 5 mM MgCl2, 1 complete EDTA-free protease inhibitor tablet per 50 mL buffer) using a tissue homogenizer. The membranes were centrifuged at 40,000×g for 30 min at 4° C. and the pellets were resuspended in membrane buffer containing 250 mM sucrose, and protein concentration was determined using the Coomassie Plus kit (Pierce Biotechnology, Rockford, Ill.).
Membranes prepared from cells expressing recombinant human 5-HT6 receptor (h5-HT6) were resuspended in assay buffer containing 50 mM Tris HCl, (pH7.4), 4 mM CaCl2, 10 μg/mL saponin, and 0.1% (w/v) ascorbic acid. Membranes were preincubated using 1.75 μg membrane protein and 0.25 mg FlashBlue scintillation beads (PerkinElmer catalogue #FB001) per well at 4° for 30 min. […] Test compounds or assay controls for total and non-specific binding were diluted in DMSO as 100× solutions and serially diluted by half log concentrations on a Perkin Elmer JANUS Automated Workstation. Serotonin (10 μM final concentration) was used to determine non-specific binding in the assay. Plates were read using the Microbeta Trilux 1450 LSC and luminescence counter. Data were analyzed by nonlinear […] using the dose-response equation (variable slope) to calculate IC50 in XLfit4 (ID Business Solutions Inc.): y=(Bottom+((Top−Bottom)/(1+((IC50/x)^Hill slope))))
Ki value was then calculated according to the Cheng-Prusoff method using the equation below (Cheng and Prusoff, 1973): Ki,app=IC50/(1+[radioligand]/Kd))

T1 sequence (P50406 whole entry): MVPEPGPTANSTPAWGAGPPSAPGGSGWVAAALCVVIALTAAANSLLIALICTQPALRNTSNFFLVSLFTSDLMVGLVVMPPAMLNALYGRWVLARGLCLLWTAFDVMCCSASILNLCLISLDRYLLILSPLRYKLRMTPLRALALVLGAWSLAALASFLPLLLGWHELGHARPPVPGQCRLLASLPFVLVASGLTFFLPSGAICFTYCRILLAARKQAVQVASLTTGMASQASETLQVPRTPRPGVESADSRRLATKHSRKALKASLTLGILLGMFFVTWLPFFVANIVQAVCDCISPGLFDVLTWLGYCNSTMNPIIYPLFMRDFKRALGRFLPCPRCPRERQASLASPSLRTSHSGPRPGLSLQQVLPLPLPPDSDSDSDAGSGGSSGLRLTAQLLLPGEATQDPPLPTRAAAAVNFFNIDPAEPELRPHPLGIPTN

As to `[O-][S+](c1ccc2c(c1)OC1CNCCC21)c1c(F)c(F)cc(F)c1F` (centres unmarked) [Example 144], the Ki was greater than 1000 nM.

Regarding `O=S(=O)(c1cccc(F)c1)c1ccc2oc3c(c2c1)CCNC3C(F)(F)F` (centres unmarked) [Example 511], the Ki is greater than 1000 nM.

For the molecule `CC(C)c1ccc(S(=O)(=O)c2ccc3c4c(oc3c2)CNCC4)cc1` [Example 195], the inhibitory constant (Ki) was less than 500 nM.

On to `O=S(=O)(c1cccc(F)c1)c1ccc2c3c(oc2c1)C(C1CCOCC1)NCC3` (centres unmarked) [Example 496], for which the Ki was less than 500 nM.

Take `O=S(=O)(Nc1ccc2c(c1)C1CCNCC1O2)c1c(Cl)nc2sccn12` (centres unmarked) [Example 818]: the Ki was less than 500 nM.

Regarding `CC(C)Oc1ncccc1S(=O)(=O)c1ccc2oc3c(c2c1)CCNC3` [Example 449], the Ki was less than 500 nM.

Turning to `Cn1cnc(COc2cccc(S(=O)(=O)c3ccc4c(c3)OC3CNCCC43)c2)n1` (centres unmarked) [Example 560], the Ki was greater than 1000 nM.

As for `O=S(=O)(Oc1ccc2c(c1)OC1CNCCC21)c1ccc(C(F)(F)F)cc1` (centres unmarked) [Example 673], the inhibition constant (Ki) was less than 500 nM.

As for `CC12CCNCC1Oc1ccc(OS(=O)(=O)Cc3ccccc3Cl)cc12` (centres unmarked) [Example 784], the inhibitory constant (Ki) is less than 500 nM.

With `CC(C)Oc1cccc(S(=O)(=O)c2ccc3oc4c(c3c2)CCNC4)c1` [Example 267], the Ki is less than 500 nM.

As for `O=S1(=O)CCC2(CC1)NCCc1c2oc2cc(S(=O)(=O)c3cccc(F)c3)ccc12` [Example 38, 7-[(3-fluorophenyl)sulfonyl]-2′,3,3′,4,5′,6′-hexahydro-2H-spiro[1-benzofuro[2,3-c]pyridine-1,4′-thiopyran] 1′,1′-dioxide], the Ki was less than 500 nM.

In the case of `CC12CCNCC1Oc1cc(S(=O)(=O)c3cncc(Cl)c3)ccc12` (centres unmarked) [Example 430], the Ki is less than 500 nM.

As for `O=S(=O)(c1ccc(Cl)c(Cl)c1)c1ccc2c3c(oc2c1)CNCC3` [Example 197, 7-[(3,4-dichlorophenyl)sulfonyl]-1,2,3,4-tetrahydro[1]benzofuro[2,3-c]pyridine], the Ki is less than 500 nM.

For `O=S(=O)(Cc1cccc(C(F)(F)F)c1)Oc1ccc2c(c1)C1CCNCC1O2` (centres unmarked) [Example 750], the Ki is greater than 1000 nM.

For the molecule `O=S(=O)(Oc1ccc2c(c1)OC1CNCCC21)c1cccc2nsnc12` (centres unmarked) [Example 669], the Ki is less than 500 nM.

In the case of `CC(=O)NCC1NCCc2c1oc1cc(S(=O)(=O)c3cccc(Cl)c3)ccc21` (racemic) [Example 539, N-({7-[(3-chlorophenyl)sulfonyl]-1,2,3,4-tetrahydro[1]benzofuro[2,3-c]pyridin-1-yl}methyl)acetamide], the Ki is less than 500 nM.

In the case of `CC(C)Oc1cccc(S(=O)(=O)c2ccc3c(c2)OC2CNCCC32C)c1` (single isomer, unassigned) [Example 21, 4a-methyl-7-{[3-(propan-2-yloxy)phenyl]sulfonyl}-1,2,3,4,4a,9a-hexahydro[1]benzofuro[2,3-c]pyridine], the Ki is less than 500 nM.

Turning to `COc1cc2c(cc1OC)CN(S(=O)(=O)c1ccc3c(c1)C1CCNCC1O3)CC2` (centres unmarked) [Example 859], the Ki was greater than 1000 nM.

Consider `O=S(=O)(c1ccc2c(c1)OC1CNCCC21)c1ccccc1-c1ccccc1` (centres unmarked) [Example 152], for which the Ki was less than 500 nM.

`Cc1ccc(S(=O)(=O)Oc2ccc3c(c2)C2CCNCC2O3)cc1F` (centres unmarked) [Example 709]: the Ki is 500 to 1000 nM.

Regarding `CC12CCNCC1Oc1ccc(OS(=O)(=O)Cc3ccc(Cl)cc3)cc12` (centres unmarked) [Example 789], the Ki is greater than 1000 nM.

With `O=S(=O)(c1cc(F)cc(F)c1)c1ccc2c3c(oc2c1)C1(CCOCC1)NCC3` [Example 301, 7-[(3,5-difluorophenyl)sulfonyl]-2′,3,3′,4,5′,6′-hexahydro-2H-spiro[1-benzofuro[2,3-c]pyridine-1,4′-pyran]], the Ki is less than 500 nM.

On to `O=S(=O)(Nc1ccc2c(c1)C1CCNCC1O2)c1ccccc1` (centres unmarked) [Example 817, N-(1,2,3,4,4a,9a-Hexahydro[1]benzofuro[2,3-c]pyridin-6-yl)benzenesulfonamide], for which the Ki is greater than 1000 nM.

For the molecule `CCOCC1NCCc2c1oc1cc(S(=O)(=O)c3cccc(F)c3)ccc21` (racemic) [Example 33, 1-(ethoxymethyl)-7-[(3-fluorophenyl)sulfonyl]-1,2,3,4-tetrahydro[1]benzofuro[2,3-c]pyridine], the Ki was less than 500 nM.

`O=S(=O)(Oc1ccc2c(c1)OC1CN(CCc3ccccc3)CCC21)c1ccc(Cl)cc1` (centres unmarked) [Example 813]: the Ki was greater than 1000 nM.

Regarding `O=S(=O)(c1ccc2c(c1)OCCO2)c1ccc2c(c1)C1CCNCC1O2` (centres unmarked) [Example 180], the Ki was greater than 1000 nM.

On to `O=S(=O)(c1cccc(C(F)(F)F)c1)c1ccc2c3c(oc2c1)C1(CCOCC1)NCC3` [Example 298], for which the Ki was less than 500 nM.

Take `O=S(=O)(c1cccc(F)c1)c1ccc2c3c(oc2c1)C1CCCCN1CC3` (centres unmarked) [Example 617]: the inhibitory constant (Ki) is less than 500 nM.

Regarding `CC12CCNCC1Oc1cc(S(=O)(=O)c3ncccn3)ccc12` (racemic) [Example 9, 4a-methyl-7-(pyrimidin-2-ylsulfonyl)-1,2,3,4,4a,9a-hexahydro[1]benzofuro[2,3-c]pyridine], the Ki was greater than 1000 nM.

As for `CC(=O)N1CCc2c(oc3cc(S(=O)(=O)c4cccc(Cl)c4)ccc23)C1` [Example 615, 1-{7-[(3-Chlorophenyl)sulfonyl]-3,4-dihydro[1]benzofuro[2,3-c]pyridin-2(1H)-yl}ethanone], the Ki was less than 500 nM.

As to `CC(=O)Nc1ccc(S(=O)(=O)c2ccc3c(c2)OC2CNCCC32)cc1` (centres unmarked) [Example 140], the Ki was less than 500 nM.

As to `O=S(=O)(c1ccc(Cl)c(Cl)c1)c1ccc2c(c1)OC1CNCCC21` (centres unmarked) [Example 120], the Ki is less than 500 nM.

Turning to `O=S(=O)(Oc1ccc2c(c1)OC1CNCCC21)c1ccc(F)cc1` (centres unmarked) [Example 644], the Ki is less than 500 nM.

For `CCCCC1NCCc2c1oc1cc(S(=O)(=O)c3cccc(Cl)c3)ccc21` (centres unmarked) [Example 499], the Ki is less than 500 nM.

Turning to `CC12CCNCC1Oc1ccc(OS(=O)(=O)c3cccc4cccnc34)cc12` (centres unmarked) [Example 770], the Ki was greater than 1000 nM.

For `COc1ccc(S(=O)(=O)c2ccc3c4c(oc3c2)C(C)(C)NCC4)cc1F` [Example 288], the Ki was less than 500 nM.

For `CC12CCNCC1Oc1ccc(OS(=O)(=O)Cc3ccccc3)cc12` (centres unmarked) [Example 758, 4a-methyl-1,2,3,4,4a,9a-hexahydro[1]benzofuro[2,3-c]pyridin-6-yl phenylmethanesulfonate], the Ki is less than 500 nM.

Consider `COc1cc(OC)cc(S(=O)(=O)c2ccc3c(c2)OC2CNCCC32C)c1` (centres unmarked) [Example 490], for which the Ki was less than 500 nM.

As for `CNC(=O)c1c(F)cccc1S(=O)(=O)c1ccc2c(c1)OC1CNCCC21` (centres unmarked) [Example 477], the Ki is greater than 1000 nM.

On to `N#Cc1ccccc1COc1cccc(S(=O)(=O)c2ccc3c(c2)OC2CNCCC32)c1` (centres unmarked) [Example 550], for which the Ki fell in the range of 500 to 1000 nM.

Consider `O=S(=O)(c1ccccc1)c1ccc2c3c(oc2c1)CN(Cc1ccccc1)CC3` [Example 597], for which the Ki is 500 to 1000 nM.

Take `O=S(=O)(c1ccc(Cl)c(Cl)c1)c1ccc2oc3c(c2c1)CCNC3` [Example 261, 6-[(3,4-dichlorophenyl)sulfonyl]-1,2,3,4-tetrahydro[1]benzofuro[2,3-c]pyridine]: the Ki is less than 500 nM.

For the molecule `O=S(=O)(c1ccc2c(c1)OC1CNCCC21)c1cccc2c1OC(F)(F)O2` (centres unmarked) [Example 469], the Ki was less than 500 nM.

As to `COc1ccc(F)cc1S(=O)(=O)c1ccc2c(c1)OC1CNCCC21` (centres unmarked) [Example 132], the inhibition constant (Ki) is greater than 1000 nM.

`O=S(=O)(c1ccc2oc3c(c2c1)CCNC3)c1c(F)c(F)cc(F)c1F` [Example 274]: the Ki is less than 500 nM.

Take `CC(C)Oc1cccc(S(=O)(=O)c2ccc3c4c(oc3c2)C2(CCOC2)NCC4)c1` (single isomer, unassigned) [Example 32, 7-{[3-(propan-2-yloxy)phenyl]sulfonyl}-3,4,4′,5′-tetrahydro-2H-spiro[1-benzofuro[2,3-c]pyridine-1,3′-furan]]: the Ki was less than 500 nM.

Take `O=S(=O)(c1cc(F)cc(Cl)c1)c1ccc2c(c1)OC1CNCCC21` (centres unmarked) [Example 157]: the Ki was less than 500 nM.

In the case of `COc1cc(OC(C)C)cc(S(=O)(=O)c2ccc3c(c2)OC2CN(C4CCC4)CCC32)c1` (centres unmarked) [Example 612], the Ki is less than 500 nM.

Take `O=S(=O)(c1ccccc1)c1ccc2c3c(oc2c1)CN(CC(F)(F)F)CC3` [Example 598]: the Ki is less than 500 nM.

On to `COc1cc(OC(C)C)cc(S(=O)(=O)c2ccc3c(c2)OC2CNCCC32)c1` (centres unmarked) [Example 77], for which the inhibition constant (Ki) was less than 500 nM.
